From patent US10208059B2, “Heterocyclic modulators of HIF activity for treatment of disease” (Board of Regents, University of Texas System, priority 2012, dated 2019) come the findings set out here.

Counter-ions that a name gives are not always drawn.

This assay concerns 293T-HRE-GFP-luc cells. The assay is described as follows: Cell-based reporter assay for IC50 determinations. Conditions: hypoxia 6 hrs (1% O2), luminescence, read-out: IC50 Classification. As for the experimental part:
Cell-Based Reporter Assay for IC50 Determinations
293T-HRE-GFP-luc cells were routinely maintained in DMEM media (high glucose version with GlutaMAX and HEPES, Gibco, catalog #10564) supplemented with 10% fetal bovine serum and 2 μg/mL puromycin (Invitrogen, catalog #A11138-03) using a humidified incubator (normoxia conditions consisting of 37° C., 5% CO2 and ambient O2).
In preparation for the reporter assay, cells were harvested and resuspended in DMEM media (high glucose version with GlutaMAX and HEPES) supplemented with 10% fetal bovine serum. Cells were inoculated into 384-well white Culturplates (Perkin Elmer catalog #6007680) at a density of 12,000 cells/well in a volume of 30 μL. The microplates were incubated overnight (approximately 17-19 hours) at 37° C. with 5% CO2 and ambient O2. Stock solutions of the test compounds were prepared in DMSO (Sigma, Catalog #D2650) and serially diluted 1:3 using DMSO. Compounds were additionally diluted (1:50) with culturemedium and 10 μL were added per well to the Culturplate. Following a 30 min. incubation under normoxia conditions, the plates were incubated in hypoxia for 6 hrs. (37° C., 5% CO2 and 1% O2). Steadylite Plus (Perkin Elmer, catalog #6016751) was then added (40 μL/well), the plates were mixed on an orbital shaker at room temperature in the dark for 15 min., and luminescence was measured using an Envision plate reader (Perkin Elmer). IC50 values were calculated using a four-parameter logistic curve fit. Results are shown below in Table 2; ND indicates no data.
Background: Reporter assays use an easily measured gene product as a stand-in for the process of interest.
Consider `Cc1nc(-c2nc(-c3ccc(OC(F)(F)F)cc3)no2)nn1Cc1ccnc(N2CCNCC2)c1` [Example 1, 4-(4-((5-Methyl-3-(3-(4-(trifluoromethoxy)phenyl)-1,2,4-oxadiazol-5-yl)-1H-1,2,4-triazol-1-yl)methyl)pyridin-2-yl)piperazin-1-ium trifluoroacetate], for which the IC50 lay within 0.1 to 1 µM. As to `Cc1nc(-c2ccc(-c3ccccc3)o2)nn1Cc1ccnc(N2CCN(C)CC2)c1` [Example 3], the IC50 is 1 to 10 µM. Consider `FC(F)(F)Oc1ccc(-c2noc(-c3nc(-c4cccnc4)n(Cc4ccccc4)n3)n2)cc1` [Example 4, 3-(1-Benzyl-3-(3-(4-(trifluoromethoxy)phenyl)-1,2,4-oxadiazol-5-yl)-1H-1,2,4-triazol-5-yl)pyridin-1-ium trifluoroacetate], for which the IC50 is less than 0.1 µM. As to `Cc1nc(-c2nnc(-c3ccccc3)o2)nn1Cc1ccnc(N2CCC(C)(C)CC2)c1` [Example 5, 2-(4,4-Dimethylpiperidin-1-yl)-4-((5-methyl-3-(5-phenyl-1,3,4-oxadiazol-2-yl)-1H-1,2,4-triazol-1-yl)methyl)pyridin-1-ium trifluoroacetate], the IC50 fell in the range of 1 to 10 µM. For `Cc1nc(-c2nnc(-c3ccc(OC(F)(F)F)cc3)o2)nn1Cc1cccc(N2CCN(C)CC2)c1` [Example 6, 1-Methyl-4-(3-((5-methyl-3-(5-(4-(trifluoromethoxy)phenyl)-1,3,4-oxadiazol-2-yl)-1H-1,2,4-triazol-1-yl)methyl)phenyl)piperazin-1-ium trifluoroacetate], the IC50 was less than 0.1 µM. Regarding `Cc1nc(-c2nnc(-c3ccc(OC(F)(F)F)cc3)o2)nn1Cc1ccnc(N2CCN(C)CC2)c1` [Example 7, 1-Methyl-4-(4-((5-methyl-3-(5-(4-(trifluoromethoxy)phenyl)-1,3,4-oxadiazol-2-yl)-1H-1,2,4-triazol-1-yl)methyl)pyridin-1-ium-2-yl)piperazin-1-ium trifluoroacetate], the IC50 lay in the range of 0.1 to 1 µM. Take `Cc1nc(-c2nnc(-c3ccc(C(C)(C)C)cc3)o2)nn1Cc1cccc(N2CCN(C)CC2)c1` [Example 8, 2-(4-(tert-Butyl)phenyl)-5-(5-methyl-1-(3-(4-methylpiperazin-1-yl)benzyl)-1H-1,2,4-triazol-3-yl)-1,3,4-oxadiazole]: the IC50 was less than 0.1 µM.

Take `Cc1nc(-c2nc(-c3ccc(C(C)(C)C)cc3)no2)nn1Cc1ccnc(N2CCN(C)CC2)c1` [Example 9, 3-(4-(tert-Butyl)phenyl)-5-(5-methyl-1-((2-(4-methylpiperazin-1-yl)pyridin-4-yl)methyl)-1H-1,2,4-triazol-3-yl)-1,2,4-oxadiazole]: the IC50 is less than 0.1 µM. For `Cc1nc(-c2nc(-c3ccc(OC(F)(F)F)cc3)no2)nn1Cc1ccnc(N2CCOCC2)c1` [Example 10, 4-(4-((5-Methyl-3-(3-(4-(trifluoromethoxy)phenyl)-1,2,4-oxadiazol-5-yl)-1H-1,2,4-triazol-1-yl)methyl)pyridin-2-yl)morpholine] the value was less than 0.1 µM. For `Cc1nc(-c2nc(-c3ccc(OC(F)(F)F)cc3)no2)nn1Cc1cccc(NCCN(C)C)c1` [Example 11, N,N-Dimethyl-2-((3-((5-methyl-3-(3-(4-(trifluoromethoxy)phenyl)-1,2,4-oxadiazol-5-yl)-1H-1,2,4-triazol-1-yl)methyl)phenyl)amino)ethanaminium trifluoroacetate] the value was 1 to 10 µM; for `COC(=O)c1cccc(Cn2nc(-c3nc(-c4ccc(OC(F)(F)F)cc4)no3)nc2C)c1` [Example 12, Methyl 3-((5-methyl-3-(3-(4-(trifluoromethoxy)phenyl)-1,2,4-oxadiazol-5-yl)-1H-1,2,4-triazol-1-yl)methyl)benzoate], less than 0.1 µM; for `Cc1nc(-c2nc(-c3ccc(OC(F)(F)F)cc3)no2)nn1Cc1cccc(C(=O)N2CCN(C)CC2)c1` [Example 13, (3-((5-Methyl-3-(3-(4-(trifluoromethoxy)phenyl)-1,2,4-oxadiazol-5-yl)-1H-1,2,4-triazol-1-yl)methyl)phenyl)(4-methylpiperazin-1-yl)methanone], less than 0.1 µM. On to `COCCCNC(=O)c1cccc(Cn2nc(-c3nc(-c4ccc(OC(F)(F)F)cc4)no3)nc2C)c1` [Example 14, N-(3-methoxypropyl)-3-((5-methyl-3-(3-(4-(trifluoromethoxy)phenyl)-1,2,4-oxadiazol-5-yl)-1H-1,2,4-triazol-1-yl)methyl)benzamide], for which the half-inhibitory concentration (IC50) was less than 0.1 µM. For `Cc1ccc(Cn2nc(-c3nc(-c4ccc(OC(F)(F)F)cc4)no3)nc2C)cc1` [Example 15, 5-(5-Methyl-1-(4-methylbenzyl)-1H-1,2,4-triazol-3-yl)-3-(4-(trifluoromethoxy)phenyl)-1,2,4-oxadiazole] the value was less than 0.1 µM; for `Cc1nc(-c2nc(-c3ccc(OC(F)(F)F)cc3)no2)nn1Cc1cn2ccccc2n1` [Example 16, 5-(1-(imidazo[1,2-a]pyridin-2-ylmethyl)-5-methyl-1H-1,2,4-triazol-3-yl)-3-(4-(trifluoromethoxy)phenyl)-1,2,4-oxadiazole], 0.1 to 1 µM. Turning to `Cc1nc(-c2nc(-c3ccc(OC(F)(F)F)cc3)no2)nn1Cc1cnc(Cl)s1` [Example 17, 5-(1-((2-Chlorothiazol-5-yl)methyl)-5-methyl-1H-1,2,4-triazol-3-yl)-3-(4-(trifluoromethoxy)phenyl)-1,2,4-oxadiazole], the IC50 lay within 1 to 10 µM. Turning to `Cc1nc(-c2nc(-c3ccc(OC(F)(F)F)cc3)no2)nn1Cc1cnc(N2CCOCC2)s1` [Example 18, 4-(5-((5-Methyl-3-(3-(4-(trifluoromethoxy)phenyl)-1,2,4-oxadiazol-5-yl)-1H-1,2,4-triazol-1-yl)methyl)thiazol-2-yl)morpholine], the IC50 lay within 1 to 10 µM.

Turning to `Cc1nc(-c2nc(-c3ccc(OC(F)(F)F)cc3)no2)nn1Cc1ccnc(Cl)n1` [Example 19, 5-(1-((2-Chloropyrimidin-4-yl)methyl)-5-methyl-1H-1,2,4-triazol-3-yl)-3-(4-(trifluoromethoxy)phenyl)-1,2,4-oxadiazole], the IC50 is 1 to 10 µM. Take `Cc1nc(-c2nc(-c3ccc(OC(F)(F)F)cc3)no2)nn1Cc1ccnc(N2CCN(C)CC2)n1` [Example 20, 5-(5-Methyl-1-((2-(4-methylpiperazin-1-yl)pyrimidin-4-yl)methyl)-1H-1,2,4-triazol-3-yl)-3-(4-(trifluoromethoxy)phenyl)-1,2,4-oxadiazole]: the IC50 was less than 0.1 µM. As for `Cc1nc(-c2nc(-c3ccc(S(C)(=O)=O)cc3)no2)nn1Cc1ccnc(N2CCN(C)CC2)c1` [Example 21, 1-Methyl-4-(4-((5-methyl-3-(3-(4-(methylsulfonyl)phenyl)-1,2,4-oxadiazol-5-yl)-1H-1,2,4-triazol-1-yl)methyl)pyridin-1-ium-2-yl)piperazin-1-ium bis-trifluoroacetate], the figure is 1 to 10 µM; as for `Cc1ccc(-c2noc(-c3nc(C)n(Cc4ccnc(N5CCN(C)CC5)c4)n3)n2)cc1` [Example 22, 1-Methyl-4-(4-((5-methyl-3-(3-(p-tolyl)-1,2,4-oxadiazol-5-yl)-1H-1,2,4-triazol-1-yl)methyl)pyridin-1-ium-2-yl)piperazin-1-ium bis-trifluoroacetate], 0.1 to 1 µM.

A word on the IC50: it is the concentration needed to halve the response being measured.
